Source: patent US7504362B2, “Pesticidal compositions” (Merial Limited, priority 2002, dated 2009)

system: Ctenocephalides felis, Diabrotica undecimpunctata, Nephotettix cincticeps or Rhipicephalus sanguineus; experiment: Pooled statement: active in one or more of the above tests (Methods A to E); assay type: in vivo; settings: active = reaching the threshold of Method A, B, C, D or E; test not given per compound
Description: The following representative test procedures, using compounds of the invention, were conducted to determine the parasiticidal and pesticidal activity of compounds of the invention.
A test container was filled with 10 adults of Ctenocephalides felis. A glass cylinder was closed on one end with parafilm and placed on top of the test container. The test compound solution was then pipetted into bovine blood and added to the glass cylinder. The treated Ctenocephalides felis were held in this artificial dog test (blood 37° C., 40-60% relative humidity; Ctenocephalides felis 20-22° C., 40-60% relative humidity) and assessment performed at 24 and 48 hours after application. Active compounds gave at least 90% control of Ctenocephalides felis at a test concentration of 5 ppm or less.
Two days before application, seeds of maize were soaked in water under warm conditions to elicit fast germination. One day before application, eggs of Diabrotica undecimpunctata were transferred to one half of a Japanese filter paper placed in a plastic petri dish. Afterwards, a sprouted maize seed was placed on a moistened pad beside the filter paper. Three drops of 200 microliters of test compound solution were carefully pipetted onto the egg. The remainder of the solution was placed on the maize and then the Petri dish was closed. The treated eggs in the Petri dishes were held in a climate chamber for 6 days. The compound efficacy (percentage of dead eggs and/or larvae in comparison to untreated control) was assessed 6 days after application using a binocular microscope.
Active compounds gave at least 90% control of Diabrotica undecimpunctata at a test concentration of 10 ppm.
The leaves of 12 rice plants having a stem length of 8 cm were dipped for 5 seconds into an aqueous solution of the formulated test compound. After the solution had run off, the rice plants treated in this manner were placed in a Petri dish and populated with about 20 larvae (L3 stage) of Nephotettix cincticeps. The Petri dish was closed and then stored in a climate chamber (16 hours of light/day, 25° C., 40-60% relative humidity). After 6 days storage, the percentage mortality of leafhopper larvae was determined.
Active compounds gave at least 98% mortality of Nephotettix cinciceps larvae at a test concentration of 100 ppm.
Solutions of the test compounds were dropped onto filter paper, dried and the filter paper placed into test tubes and infested with 10 adults of Ctenocephalides felis. The treated Ctenocephalides felis were held in a climate chamber (26° C., 80% RH) and the percentage efficacy assessed 24 hours and 48 hours after application in comparison with the untreated control.
Active compounds gave at least 70% contact control of Ctenocephalides felis at a test concentration of 1000 ppm.
Solutions of the test compounds were dropped onto filter paper, dried and the filter paper placed into test tubes and infested with 20-30 larvae (L1) of Rhipicephalus sanguineus and the tubes closed with a clip. The treated Rhipicephalus sanguineus were held in a climate chamber (25° C., 90% RH) and the percentage efficacy assessed 24 hours after application in comparison with the untreated control. Active compounds gave at least 70% contact control of Rhipicephalus sanguineus at a test concentration of 100 ppm.

Structure (SMILES) | active in one or more of the above tests
CN(c1c(SC(F)(F)F)c(C#N)nn1-c1c(Cl)cc(C(F)(F)F)cc1Cl)S(=O)(=O)Cc1ccc(Cl)cc1 [Compound 2-45] | active
CCCCCCCCCCS(=O)(=O)N(C)c1c(SC(F)(F)F)c(C#N)nn1-c1c(Cl)cc(C(F)(F)F)cc1Cl [Compound 1-125] | active
CN(c1c(S(=O)(=O)C(F)(F)F)c(C#N)nn1-c1c(Cl)cc(C(F)(F)F)cc1Cl)S(=O)(=O)C=Cc1ccccc1 [Compound 1-115] | active
CN(c1c([S+]([O-])C(F)(F)F)c(C#N)nn1-c1c(Cl)cc(C(F)(F)F)cc1Cl)S(=O)(=O)Cc1ccc(Cl)cc1 (stereo not drawn) [Compound 2-80] | active
CN(c1c([S+]([O-])C(F)(F)F)c(C#N)nn1-c1c(Cl)cc(C(F)(F)F)cc1Cl)S(=O)(=O)C(Cl)(Cl)Cl (stereo not drawn) [Compound 1-118] | active
CN(c1c(SC(F)(F)F)c(C#N)nn1-c1c(Cl)cc(C(F)(F)F)cc1Cl)S(=O)(=O)Cc1ccc(C(F)(F)F)cc1 [Compound 2-58] | active
CN(c1c(SC(F)(F)F)c(C#N)nn1-c1c(Cl)cc(C(F)(F)F)cc1Cl)S(=O)(=O)Cc1ccccc1 [Compound 2-2] | active
CCCCCCCCS(=O)(=O)N(C)c1c([S+]([O-])C(F)(F)F)c(C#N)nn1-c1c(Cl)cc(C(F)(F)F)cc1Cl (stereo not drawn) [Compound 1-93] | active
CCCCCCCCCS(=O)(=O)N(C)c1c(SC(F)(F)F)c(C#N)nn1-c1c(Cl)cc(C(F)(F)F)cc1Cl [Compound 1-124] | active
CN(c1c([S+]([O-])C(F)(F)F)c(C#N)nn1-c1c(Cl)cc(C(F)(F)F)cc1Cl)S(=O)(=O)Cc1cccc(C(F)(F)F)c1 (stereo not drawn) [Compound 2-92] | active
CN(c1c(S(=O)(=O)C(F)(F)F)c(C#N)nn1-c1c(Cl)cc(C(F)(F)F)cc1Cl)S(=O)(=O)Cc1cccc(C(F)(F)F)c1 [Compound 2-127] | active
CCS(=O)(=O)N(C)c1c(SC(F)(F)F)c(C#N)nn1-c1c(Cl)cc(C(F)(F)F)cc1Cl [Compound 1-44] | active
CCCCS(=O)(=O)N(C)c1c([S+]([O-])C(F)(F)F)c(C#N)nn1-c1c(Cl)cc(C(F)(F)F)cc1Cl (stereo not drawn) [Compound 1-87] | active
CN(c1c([S+]([O-])C(F)(F)F)c(C#N)nn1-c1c(Cl)cc(C(F)(F)F)cc1Cl)S(=O)(=O)Cc1ccc(F)cc1 (stereo not drawn) [Compound 2-86] | active
CN(c1c([S+]([O-])C(F)(F)F)c(C#N)nn1-c1c(Cl)cc(C(F)(F)F)cc1Cl)S(=O)(=O)c1ccc(F)cc1 (stereo not drawn) [Compound 5-54] | active
CCCCCCCCS(=O)(=O)N(C)c1c([S+]([O-])C(F)(F)F)c(C#N)nn1-c1c(Cl)cc(C(F)(F)F)cc1Cl (stereo not drawn) [Compound 1-123] | active
CN(c1c([S+]([O-])C(F)(F)F)c(C#N)nn1-c1c(Cl)cc(C(F)(F)F)cc1Cl)S(=O)(=O)c1ccccc1 (stereo not drawn) [Compound 5-81] | active
Cc1ccc(CS(=O)(=O)N(C)c2c(S(=O)(=O)C(F)(F)F)c(C#N)nn2-c2c(Cl)cc(C(F)(F)F)cc2Cl)cc1 [Compound 2-144] | active
